Converted amounts (≈) assume the structure as drawn.
Experiments:
F. tularensis FabI = F. tularensis FabI (Francisella tularensis subsp. tularensis, UniProt Q5NGQ3); type: biochemical
F. tularensis = test: microbe, parasite or virus in culture; type: cell-based; details: Francisella tularensis
E.coli (BW251113) = type: cell-based
[1] = system: E.coli TolC mutant (BW251113-TolC-); type: cell-based

Chain of F. tularensis FabI (Q5NGQ3 1-260): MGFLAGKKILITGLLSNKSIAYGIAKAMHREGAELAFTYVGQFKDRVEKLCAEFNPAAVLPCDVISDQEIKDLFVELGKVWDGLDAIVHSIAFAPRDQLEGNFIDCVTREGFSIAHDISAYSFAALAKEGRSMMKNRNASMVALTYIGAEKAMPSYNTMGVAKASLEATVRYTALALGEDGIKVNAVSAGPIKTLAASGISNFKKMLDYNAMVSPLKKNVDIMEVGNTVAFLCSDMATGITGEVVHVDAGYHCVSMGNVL

Row | Compound | L.E. (Ligand Efficiency) (F. tularensis FabI) | fold increase in activity (IC50) over hit compound 2 (F. tularensis FabI) [fold] | MIC (F. tularensis) [µg/mL] | MIC (E.coli (BW251113)) | MIC [1]
1 | Nc1ncc(Cc2ccc(Cl)cc2)s1 [Compound 1] | 0.41 |  |  |  | 
2 | Clc1ccc(Cn2cnc3ccccc32)cc1 [Compound 2, 1-(4-chlorobenzyl) benzimidazole] | 0.37 |  |  |  | 
3 | Clc1ccc(Cn2cnc3ccccc32)cc1Cl [Compound 6] |  | ~10 | 15.6 (≈ 56.3 µM) |  | 
4 | Cc1cc2ncn(Cc3ccc(Cl)c(Cl)c3)c2cc1C [Compound 9] |  | 100 |  | >200 (3) μg/mL | 6.25 (3) μg/mL

Source: PMC3266168 (Journal of Medicinal Chemistry, 2011)
